Test results from patent US20070248672A1, “Indole and Azaindole Derivatives with Antitumor Action” (priority 2004, published 2007).
Where two headings read alike, the source gives them in different places.

How the values were obtained:
[1] = system: HT29 cells; test: Antiproliferative activity, 72 h treatment, SRB assay, HT29; assay type: cell-based, human; conditions: Homo sapiens
Description: HT29 and HT29/Mit (line obtained by prolonged exposure to mitoxantrone, and characterised by overexpression of BCRP, which confers cross resistance to topotecan, irinotecan and to its metabolite SN38): maintained in McCoy 5A medium+10% FCS.
2.2 Scheme of the Antiproliferative Activity Experiment (Treatment Time: 72 Hours)
The cells (HT29 and HT29/Mit: 40,000 cells/ml, LoVo, LoVo/Dx and HCT116: 50,000 cells/ml) are seeded in 100 μl of the respective culture media in 96-well plates. 24 hours after seeding, an aliquot (10 μl) of drug at the various concentrations is added. In the samples in which the effect of the combination of two compounds is to be tested the inhibitor is added immediately before the cytotoxic. For each dose or combination of doses/drugs the effect of the treatment is determined in 4-8 replicates.
After 72 hours of treatment the antiproliferative effect is evaluated using the sulforhodamine B (SRB) assay: the cells are fixed by adding 25 μl of 50% TCA to each well and left for 1 hour at 4° C. After washing them with water and allowing them to dry, 100 μl of 0.4% SRB in 1% acetic acid are added and left for 30 minutes at room temperature. After 4 washes in 1% acetic acid, they are left to dry then the dye fixed by the proteins is dissolved under basic conditions with 100 μl 10 mM cold Tris and the solution is read using a spectrophotometer at 550 nm.
Percentage cell growth is calculated as the optical density of treated samples compared to the optical density of controls (untreated cells).

[2] = biological target: Vacuolar ATPase in bovine chromaffin cells membranes (BCG) (Bos taurus, UniProt P23956+Q29466); test: Vacuolar ATPase inhibition in bovine chromaffin cells membranes (BCG); assay type: biochemical; conditions: read-out: ATPase activity (IC50) BCG; bovine chromaffin cell membranes
Description: Inhibition of bafilomycin sensitive ATPase activity is assayed by measuring the release of inorganic phosphate during 30 minutes of incubation, at 37° C., of the human osteoclastoma microsomal fraction in 96-well plates. The reaction medium contains 1 mM ATP, 10 mM Hepes-Tris buffer pH 8, 50 mM KCl, 5 μM valinomycin, 5 μM nigericin, 1 mM CDTA-Tris, 100 μM ammonium molybdate, 0.2 M sucrose and the microsomal fraction (20 μg protein/ml). The reaction is initiated by adding MgSO4 and terminated, after 30 minutes, by adding 4 volumes of the reagent malachite green, prepared according to Chan K., Anal. Biochem. 157, 375-380, 1986.
1.2 Determination of Vacuolar ATpase Inhibition in the Bovine Chromaffin Cells Membranes (BCG)
About 20 adrenal glands (Cidon S., J. Biol. Chem. 258, 2892-2898, 1983) are removed from healthy bovines; the medulla is quickly separated from the cortex, which is discarded. The medulla is homogenised at 4° C. with a suitable medium at pH 7.5, then filtered. The remaining solid material is further homogenised, filtered and recombined with the preceding filtrate, resuspended and centrifuged at 1000 g for 15 minutes; the supernatant obtained is centrifuged at 10000 g for 20 minutes. The resultant pellet is resuspended and stratified through a sucrose gradient formed of a lower part of 15 ml 1.5 M sucrose and an upper part of 10 ml 1.2 M sucrose. After overnight centrifugation at 4° C. with a SW28 rotor at 20000 rpm, the chromaffiln cells sediment into a pellet. This latter is resuspended, centrifuged at 3000 g for 10 minutes, and the supernatant obtained is centrifuged at 200000 g for 60 minutes. The pellet is then resuspended in 4 ml of a suitable medium containing 0.2 μg/ml pepstatin A and 0.4 μg/ml leupeptin and stored under liquid nitrogen.
The method for ATPase inhibition assay is the same as that followed for the osteoclastoma.

Chain of Vacuolar ATPase in bovine chromaffin cells membranes (BCG) (P23956 whole entry, looked up): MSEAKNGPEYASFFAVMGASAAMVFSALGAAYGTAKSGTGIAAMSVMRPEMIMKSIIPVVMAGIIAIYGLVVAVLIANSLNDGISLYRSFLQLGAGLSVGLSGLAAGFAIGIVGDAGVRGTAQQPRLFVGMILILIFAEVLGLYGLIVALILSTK
Chain of Vacuolar ATPase in bovine chromaffin cells membranes (BCG) (Q29466 whole entry, looked up): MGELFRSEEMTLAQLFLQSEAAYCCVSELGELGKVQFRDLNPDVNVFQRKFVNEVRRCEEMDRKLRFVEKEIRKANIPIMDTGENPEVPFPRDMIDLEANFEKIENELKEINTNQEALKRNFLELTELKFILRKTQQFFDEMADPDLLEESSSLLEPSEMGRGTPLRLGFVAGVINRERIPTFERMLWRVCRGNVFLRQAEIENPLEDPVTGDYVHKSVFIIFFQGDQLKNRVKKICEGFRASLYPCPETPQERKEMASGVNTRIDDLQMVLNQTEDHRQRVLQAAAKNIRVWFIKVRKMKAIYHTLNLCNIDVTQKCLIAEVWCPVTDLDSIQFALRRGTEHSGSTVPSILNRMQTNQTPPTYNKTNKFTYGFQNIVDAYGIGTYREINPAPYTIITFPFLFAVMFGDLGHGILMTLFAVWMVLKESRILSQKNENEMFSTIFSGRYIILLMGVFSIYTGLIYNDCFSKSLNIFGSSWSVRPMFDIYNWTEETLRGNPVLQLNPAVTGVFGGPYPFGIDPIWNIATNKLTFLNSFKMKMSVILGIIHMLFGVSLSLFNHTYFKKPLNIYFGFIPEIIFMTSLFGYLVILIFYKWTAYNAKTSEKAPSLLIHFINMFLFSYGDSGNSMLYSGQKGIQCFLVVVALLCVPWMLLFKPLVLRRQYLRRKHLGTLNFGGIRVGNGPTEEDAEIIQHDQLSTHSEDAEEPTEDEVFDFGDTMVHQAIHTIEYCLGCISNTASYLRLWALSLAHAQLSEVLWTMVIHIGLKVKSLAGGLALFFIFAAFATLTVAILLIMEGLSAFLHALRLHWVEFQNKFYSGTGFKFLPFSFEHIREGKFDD

COC(=O)c1[nH]c2cc(OC)c(OC)cc2c1-c1ccc(OC)cc1 [Example 1, 5,6-Dimethoxy-3-(4-methoxy-phenyl)-1H-indole-2-carboxylic acid methyl ester]
IC50 ([1]; HT-29, HT29, after 72 hours of treatment, range stated for the group, read-out: IC50 values in the sensitive line): 5 to 42 µM
IC50 ([1]; HT-29, 72 h treatment, read-out: Antiproliferative activity (IC50 ± S.D.) HT-29 72 h treatment): 14.4 ± 2.1 µM
IC50 [2]: 0.644 µM
